Experimental data taken from paper PMC9095486, “Reversible RNA phosphorylation stabilizes tRNA for cellular thermotolerance” (Nature, 2022).

Assays:
TkArkI [1] = target: T1, TkArkI (Thermococcus kodakarensis, UniProt Q5JDQ4); test: LC-MS of ligands extracted from purified protein; format: binding; conditions: co-purified from E. coli
T1 construct: gene TK2051; full length, codon-optimised synthetic gene in pE-SUMO-TEV, E. coli; His6-SUMO tag cleaved by Ulp1; residues 1-216 described in structure
T1 sequence (Q5JDQ4 entry or part of it): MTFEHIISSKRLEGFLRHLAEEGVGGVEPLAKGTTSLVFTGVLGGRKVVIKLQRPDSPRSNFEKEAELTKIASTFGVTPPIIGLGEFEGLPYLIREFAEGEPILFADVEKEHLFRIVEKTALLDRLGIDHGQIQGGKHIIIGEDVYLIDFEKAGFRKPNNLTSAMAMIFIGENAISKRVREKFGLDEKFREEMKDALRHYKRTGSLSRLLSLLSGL

TkArkI [2] = target: T1, TkArkI; test: X-ray crystallography, […] Å; LC-MS of bound ligand; conditions: co-purified from E. coli; putative ATP-binding pocket

| Structure (SMILES) | LC-MS of ligands extracted from purified protein (TkArkI [1]) | X-ray crystallography, 1.8 Å; LC-MS of bound ligand (TkArkI [2]) |
| --- | --- | --- |
| Nc1nc2c(ncn2[C@H]2C[C@H](O)[C@@H](CO)O2)c(=O)[nH]1 [deoxyguanosine] | We confirmed guanosine (and deoxyguanosine) as a ligand that tightly binds to TkArkI |  |
| Nc1nc2c(ncn2[C@@H]2O[C@H](CO)[C@@H](O)[C@H]2O)c(=O)[nH]1 [guanosine] |  | we observed a clear electron density for guanosine in the cleft of the two lobes |
